{"source": "patent US20250346643A1", "about": "“TROPOMYOSIN KINASE RECEPTOR (TRK) LIGANDS AS THERAPEUTICS TO SUPPORT LIVER REGENERATION” (Vanderbilt University, priority 2024, published 2025)", "assay_type_in_all_cases": "cell-based, human", "key": {"[1]": {"system": "CCND1 and PCNA", "experiment": "Immunoblotting of mpPHH for CCND1 and PCNA", "conditions": "mpPHHs, NTF3", "method": "(§1) Mouse passaged primary human hepatocytes. Mouse-passaged primary human hepatocytes (mpPHHs) were collected as previously described (Michailidis et al., Proc Natl Acad Sci USA. 2020; 117(3): 1678-1688) and cultured in hepatocyte culture media (CC-3198, Lonza, Basel, Switzerland) in collagen-coated chamber slides. Three days before treatment, mpPHH were incubated in William's E media (with L-glutamine). […] 5-15 images per treatment per experiment were randomly taken and EdU positive nuclei quantified.\n(§2) Immunoblotting. […] Protein concentration of supernatants was determined by Direct Detect Spectrophotometer (MilliporeSigma, Burlington, MA). […] The protein concentration of supernatants was determined by a Direct Detect® spectrophotometer (MilliporeSigma, Burlington, MA). For immunoblot analysis, 10 to 50 μg of protein diluted in […] sample buffer (Invitrogen, Waltham, MA) were analyzed per SDS-polyacrylamide gel electrophoresis (NuPAGE™, Invitrogen, Waltham, MA) using Mops buffer or MES buffer (Invitrogen, Waltham, MA). […] Semi-quantitative band densitometry was performed using ImageJ software (version 1.53)."}, "[2]": {"system": "mTOR", "experiment": "Immunoblotting of mpPHH for P-S6RP and P-P70S6K (mTOR activation)", "conditions": "NTF3", "method": "as §1, §2"}, "[3]": {"system": "P-TRKA Tyr674/675, P-TRKB Tyr706/707", "experiment": "Western blot of phosphorylated TRK in HepG2 cell lysates", "conditions": "HepG2, NTF3 (FIG. 9G-H)", "method": "Human HepG2 and mouse AML12 cells were grown in 6-well plates. […] Lyophilized NTF3 was solubilized with sterile filtered PBS supplemented with 0.1% BSA, aliquoted and stored at −80° C. until use. […] Cell lysates were sonicated and centrifuged for 10 min at 18,800×g. Protein concentration of supernatants were determined by Direct Detect Spectrophotometer (MilliporeSigma, Burlington, MA).\nFor immunoblot analysis, 30-50 μg of protein diluted in LSD sample buffer (Invitrogen, Waltham, MA) were analyzed per SDS-PAGE (NuPAGE™, Invitrogen, Waltham, MA) using MOPS buffer or MES buffer (Invitrogen, Waltham, MA). Gels were stained with Coomassie (Bio-Safe Coomassie G-250 Stain, Bio-Rad, Hercules, CA) and transferred onto PVDF membranes using semi-dry blotting (Trans-Blot SD, Bio-Rad, Hercules, CA). Images were visualized on an Amersham™ Imager 680 (Cytiva, Marlborough, MA)."}, "[4]": {"system": "CCND1 and PCNA", "experiment": "Immunoblotting of HDOs for CCND1 and PCNA", "conditions": "NTF3", "method": "Human ductal organoids. The normal human liver tissue was obtained through the Cooperative Human Tissue Network (CHTN) at Vanderbilt University Medical Center. The liver was cut into very small pieces in liver digestion medium (Gibco, Waltham, MA; 17703-034). The cell suspension was filtered through a 100-μm cell strainer. The flow through was then centrifuged for 2 min at 100 g, 4° C., and the cell pellet resuspended in ice-cold DMEM (Gibco, Waltham, MA; 11885-084, supplemented by 5% FBS) and centrifuged for 2 min at 300 g. The cell pellet was gently resuspended in Matrigel® (Corning, Corning, NY; 356231) and a […] dome plated in a 24-well plate. The plate was incubated for 10-15 min at 37° C. […]\nas §2"}}, "data": [{"substance": "NTF3: neurotrophin-3, recombinant protein; HSC-derived hepatocyte mitogen, ligand of TRKA, TRKB, TRKC", "values": [{"measurement": "CCND1 and PCNA (immunoblotting)", "setting": "[1]", "value": "induced CCND1 and PCNA"}, {"measurement": "levels of phosphorylated P-S6RP Ser240/244 and P-pS70SK Thr389", "setting": "[2]", "value": "increased levels"}, {"measurement": "TRK phosphorylation (P-TRKA Tyr674/675, P-TRKB Tyr706/707)", "setting": "[3]", "value": "Increased TRK phosphorylation"}, {"measurement": "CCND1 and PCNA (immunoblotting)", "setting": "[4]", "value": "induced CCND1 and PCNA"}]}]}
